The record followed here is the supplement of paper PMC11208160.

The data set can be described thus: recombinant barcode read abundance after kanamycin selection (control-corrected) (log10(CPM+1)); higher = more efficient recombination; sequences stand for … in AGTGCAGAGAAAATCGGCCAGTTTTCTCTGCCTGCAGTCCGCATGCCGT…AGATTTATGCAGCGGACTGCCTTTCTCCCAAAGTGATAAACCGGACAGTATCATGGACCGGTTTTCCCGGTAATCCGTATTTGCAAGGTTGGTTTCACT; site = the 11-nt target. In a few lines: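 Recombination efficiency draws on barcodes counted at recombinant junctions in a pooled E. coli screen of targets paired with IS621 bridge RNA target-binding loops. The counts were converted to counts per million, averaged and corrected against the chloramphenicol/ampicillin LB agar control, then reported as log10(CPM+1). Selection plates held chloramphenicol/ampicillin/kanamycin with 0.1 mM IPTG, with two replicates per condition.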
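Also: IS621 recombinase and bridge RNA in Escherichia coli cells.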

For the sequence “GACGATCCTTGGGTTCTAACCTGTTGCAT (site GACGATCCTAT)”, the “recombinant barcode read abundance (log10)” value was found to be 0.547. Take “GACGATCCTTGGGTTCTAACCTGTTGCAT (site GGCGAACCTAT)”: the “recombinant barcode read abundance (log10)” value stood at 0.077.

On to “GACGATCCTTGGGTTCTAACCTGTTGCCT (site GACGATCCTAG)”, for which the “recombinant barcode read abundance (log10)” value came out at 0.66. With “GACGATCCTTGGGTTCTAACCTGTTGCCT (site GCCGATCCTAG)”, the “recombinant barcode read abundance (log10)” value is 0.0719.

“GACGATCCTTGGGTTCTAACCTGTTGCCT (site GGCGATCCTAG)”: the “recombinant barcode read abundance (log10)” value turned out to be 0.255. With “GACGATCCTTGGGTTCTAACCTGTTGCCT (site GTCGATCCTAG)”, the “recombinant barcode read abundance (log10)” value worked out at 0.0852. Regarding “GACGCGGCTTGGGTTCTAACCTGTTGCCT (site GACGCGGCTAG)”, the “recombinant barcode read abundance (log10)” value came out at 0.184. With “GACGCGGCTTGGGTTCTAACCTGTTGCCT (site TTGCGAACTCT)” the figure was 0.059; with “GACGGTCCTTGGGTTCTAACCTGTTGCGG (site GACGGTCCTCC)”, 2.15; with “GACGGTCCTTGGGTTCTAACCTGTTGCGG (site GATGGTCCTCC)”, 0.418.

For “GACGTGTCTTGGGTTCTAACCTGTTGCCG (site GACGTGTCTCG)”, the “recombinant barcode read abundance (log10)” value was 0.408. With “GACGTGTCTTGGGTTCTAACCTGTTGCCG (site GGCGTGTCTCC)” the figure was 0.0409; with “GACGTGTCTTGGGTTCTAACCTGTTGCGT (site AGTCATACTTG)”, 0. Regarding “GACGTGTCTTGGGTTCTAACCTGTTGCGT (site GACGTGTCTAC)”, the “recombinant barcode read abundance (log10)” value stood at 2.47. For “GACTCATCTTGGGTTCTAACCTGTTGCGG (site GACTCATCTCC)”, the “recombinant barcode read abundance (log10)” value was found to be 0.151. Regarding “GACTCATCTTGGGTTCTAACCTGTTGCGG (site GACTTGTCTCC)”, the “recombinant barcode read abundance (log10)” value was determined as 0.11.

Turning to “GACTCTCCTTGGGTTCTAACCTGTTGCTG (site GACTCTCCTCA)”, the “recombinant barcode read abundance (log10)” value amounted to 0.146. For “GACTCTCCTTGGGTTCTAACCTGTTGCTG (site GACTCTCCTCT)”, the “recombinant barcode read abundance (log10)” value turned out to be 0.0367.

Regarding “GACTGAGCTTGGGTTCTAACCTGTTGCGT (site GACTGAGCTAC)”, the “recombinant barcode read abundance (log10)” value came to 2.58. As for “GACTGAGCTTGGGTTCTAACCTGTTGCGT (site GGCTGAGCTAG)”, the “recombinant barcode read abundance (log10)” value is 0.236. With “GACTGCCCTTGGGTTCTAACCTGTTGCGG (site GACTGCCCTCC)”, the “recombinant barcode read abundance (log10)” value is 1.54. For the sequence “GACTGCCCTTGGGTTCTAACCTGTTGCGG (site GGCGGCCCTCC)”, the “recombinant barcode read abundance (log10)” value was 0.137. Take “GACTTACCTTGGGTTCTAACCTGTTGCAT (site GACTTACCTAT)”: the “recombinant barcode read abundance (log10)” value amounted to 1.18. Turning to “GACTTACCTTGGGTTCTAACCTGTTGCAT (site GACTTCCCTAT)”, the “recombinant barcode read abundance (log10)” value turned out to be 0.216. Consider “GACTTACCTTGGGTTCTAACCTGTTGCAT (site GACTTGCCTAT)”, for which the “recombinant barcode read abundance (log10)” value turned out to be 0.135. With “GACTTACCTTGGGTTCTAACCTGTTGCAT (site GACTTTCCTAT)”, the “recombinant barcode read abundance (log10)” value was 0.124. In the case of “GACTTCCCTTGGGTTCTAACCTGTTGCAT (site GACTTACCTAT)”, the “recombinant barcode read abundance (log10)” value was 0.352. In the case of “GACTTCCCTTGGGTTCTAACCTGTTGCAT (site GACTTCCCTAT)”, the “recombinant barcode read abundance (log10)” value turned out to be 1.45. Take “GACTTCCCTTGGGTTCTAACCTGTTGCAT (site GACTTGCCTAT)”: the “recombinant barcode read abundance (log10)” value is 0.0893.

In the case of “GACTTCCCTTGGGTTCTAACCTGTTGCAT (site GACTTTCCTAT)”, the “recombinant barcode read abundance (log10)” value was 0.0857. With “GACTTGCCTTGGGTTCTAACCTGTTGCCT (site GACTTGACTAG)” the figure was 0.023. As to “GACTTGCCTTGGGTTCTAACCTGTTGCCT (site GACTTGCCTAG)”, the “recombinant barcode read abundance (log10)” value was 0.816.

Regarding “GACTTGCCTTGGGTTCTAACCTGTTGCCT (site GACTTGGCTAG)”, the “recombinant barcode read abundance (log10)” value came to 0.394. In the case of “GACTTGCCTTGGGTTCTAACCTGTTGCCT (site GACTTGTCTAG)”, the “recombinant barcode read abundance (log10)” value worked out at 0.217.

“GACTTGTCTTGGGTTCTAACCTGTTGCGG (site GACTCATCTCC)”: the “recombinant barcode read abundance (log10)” value came out at 0. On to “GACTTGTCTTGGGTTCTAACCTGTTGCGG (site GACTTGTCTCC)”, for which the “recombinant barcode read abundance (log10)” value was found to be 1.59. Consider “GACTTTACTTGGGTTCTAACCTGTTGCCT (site GACGTTGCTAG)”, for which the “recombinant barcode read abundance (log10)” value came to 0.00775. As for “GACTTTACTTGGGTTCTAACCTGTTGCCT (site GACTTTACTAG)”, the “recombinant barcode read abundance (log10)” value turned out to be 0.0133. With “GAGAGTACTTGGGTTCTAACCTGTTGCAT (site GAGAGTACTAT)”, the “recombinant barcode read abundance (log10)” value stood at 0.982. As to “GAGAGTACTTGGGTTCTAACCTGTTGCAT (site GAGCGTACTAT)”, the “recombinant barcode read abundance (log10)” value was 0.16.

In the case of “GAGAGTACTTGGGTTCTAACCTGTTGCAT (site GAGGGTACTAT)”, the “recombinant barcode read abundance (log10)” value was 0.654. In the case of “GAGAGTACTTGGGTTCTAACCTGTTGCAT (site GAGTGTACTAT)”, the “recombinant barcode read abundance (log10)” value is 0.0293. For the sequence “GAGATCCCTTGGGTTCTAACCTGTTGCCT (site GAGATCCCTAG)”, the “recombinant barcode read abundance (log10)” value is 2.03. On to “GAGATCCCTTGGGTTCTAACCTGTTGCCT (site GTGATCCCTAG)”, for which the “recombinant barcode read abundance (log10)” value was 0.422. Take “GAGCCTCCTTGGGTTCTAACCTGTTGCAT (site ACCAGGACTCG)”: the “recombinant barcode read abundance (log10)” value was 0.136. With “GAGCCTCCTTGGGTTCTAACCTGTTGCAT (site GAGCCTCCTAT)” the figure was 1.81. With “GAGCCTTCTTGGGTTCTAACCTGTTGCAG (site AAGCCTTCTCA)” the figure was 0.0383; with “GAGCCTTCTTGGGTTCTAACCTGTTGCAG (site GAGCCTTCTCT)”, 1.46. With “GAGCGAGCTTGGGTTCTAACCTGTTGCAG (site GAGCGAGCTCA)”, the “recombinant barcode read abundance (log10)” value turned out to be 0.578. As for “GAGCGAGCTTGGGTTCTAACCTGTTGCAG (site GAGCGAGCTCC)”, the “recombinant barcode read abundance (log10)” value was 0.322. As to “GAGCGAGCTTGGGTTCTAACCTGTTGCAG (site GAGCGAGCTCG)”, the “recombinant barcode read abundance (log10)” value was determined as 0.175. For “GAGCGAGCTTGGGTTCTAACCTGTTGCAG (site GAGCGAGCTCT)”, the “recombinant barcode read abundance (log10)” value is 1.46. In the case of “GAGCGAGCTTGGGTTCTAACCTGTTGCAT (site GAGAGAGCTAT)”, the “recombinant barcode read abundance (log10)” value stood at 0.0856. For the sequence “GAGCGAGCTTGGGTTCTAACCTGTTGCAT (site GAGCGAGCTAT)”, the “recombinant barcode read abundance (log10)” value stood at 1.94. As to “GAGCGAGCTTGGGTTCTAACCTGTTGCAT (site GAGGGAGCTAT)”, the “recombinant barcode read abundance (log10)” value is 0.0637. As to “GAGCGAGCTTGGGTTCTAACCTGTTGCAT (site GAGTGAGCTAT)”, the “recombinant barcode read abundance (log10)” value was found to be 0.735. Consider “GAGCGCACTTGGGTTCTAACCTGTTGCAG (site GAGCGCACTCC)”, for which the “recombinant barcode read abundance (log10)” value is 0.27. With “GAGCGCACTTGGGTTCTAACCTGTTGCAG (site GAGCGCACTCT)” the figure was 1.7; with “GAGCGCTCTTGGGTTCTAACCTGTTGCTT (site GAGCGCTCTAA)”, 1.22; with “GAGCGCTCTTGGGTTCTAACCTGTTGCTT (site GAGCGCTCTCA)”, 0.0723. As for “GAGCGCTCTTGGGTTCTAACCTGTTGCTT (site GAGCGCTCTGA)”, the “recombinant barcode read abundance (log10)” value turned out to be 0.088. As to “GAGCGCTCTTGGGTTCTAACCTGTTGCTT (site GAGCGCTCTTA)”, the “recombinant barcode read abundance (log10)” value stood at 0.269. Regarding “GAGCGGACTTGGGTTCTAACCTGTTGCCT (site GAGCAGACTAG)”, the “recombinant barcode read abundance (log10)” value is 0.698. Turning to “GAGCGGACTTGGGTTCTAACCTGTTGCCT (site GAGCCGACTAG)”, the “recombinant barcode read abundance (log10)” value was 0.388. For “GAGCGGACTTGGGTTCTAACCTGTTGCCT (site GAGCGGACTAG)”, the “recombinant barcode read abundance (log10)” value is 1.68. Consider “GAGCGGACTTGGGTTCTAACCTGTTGCCT (site GAGCTGACTAG)”, for which the “recombinant barcode read abundance (log10)” value was found to be 0.129.

Consider “GAGCTACCTTGGGTTCTAACCTGTTGCCA (site GAGCTACCTAG)”, for which the “recombinant barcode read abundance (log10)” value came to 0.796. For the sequence “GAGCTACCTTGGGTTCTAACCTGTTGCCA (site GAGCTACCTCG)”, the “recombinant barcode read abundance (log10)” value came out at 0.213. In the case of “GAGCTACCTTGGGTTCTAACCTGTTGCCA (site GAGCTACCTGG)”, the “recombinant barcode read abundance (log10)” value was determined as 0.13. For “GAGCTACCTTGGGTTCTAACCTGTTGCCA (site GAGCTACCTTG)”, the “recombinant barcode read abundance (log10)” value stood at 1.11.

Take “GAGCTACCTTGGGTTCTAACCTGTTGCCG (site GAGCTACCTAG)”: the “recombinant barcode read abundance (log10)” value was 0.837. Take “GAGCTACCTTGGGTTCTAACCTGTTGCCG (site GAGCTACCTCG)”: the “recombinant barcode read abundance (log10)” value came to 1.11. For “GAGCTACCTTGGGTTCTAACCTGTTGCCG (site GAGCTACCTGG)”, the “recombinant barcode read abundance (log10)” value turned out to be 0.0124. With “GAGCTACCTTGGGTTCTAACCTGTTGCCG (site GAGCTACCTTG)” the figure was 0.214.

Consider “GAGCTCACTTGGGTTCTAACCTGTTGCCA (site GAGCACCCTTG)”, for which the “recombinant barcode read abundance (log10)” value stood at 0.0579. For the sequence “GAGCTCACTTGGGTTCTAACCTGTTGCCA (site GAGCTCACTTG)”, the “recombinant barcode read abundance (log10)” value was 0.514. With “GAGCTGACTTGGGTTCTAACCTGTTGCCT (site GAGCAGACTAG)”, the “recombinant barcode read abundance (log10)” value came to 0.182.
